According to US8410094B2, “Amide compounds, their pharmaceutical compositions, their preparation method and their uses” (Shanghai Institute of Materia Medica, Chinese Academy of …, priority 2008, dated 2013):

Biological target: T1, CCR5 (Homo sapiens, UniProt P51681)
T1 construct: expressed in transfected cells
Experiment: Inhibition of CCR5: [35S]GTPγS binding assays (filtration, SPA-WGA) and calcium influx assay, 10 nM RANTES, CHO-CCR5
Format: biochemical
Conditions: for IC50: inhibition of GTPγS binding induced by 10 nM RANTES, CHO-CCR5; for inhibition at 0.03 µM: compound at 30 nM, read-out: inhibition against CCR5 @30 nM; for inhibition at 0.03 µM / inhibition at 0.3 µM: 10 nM RANTES; for inhibition at 0.3 µM: compound at 300 nM, read-out: inhibition against CCR5 @300 nM
Method: CCR5 belongs to G-Protein-Coupled Receptor (GPCR) family. The developing technology of GPCR-based drugs have been well-developed, among them, the experimental techniques such as ligand-receptor binding assay, GTPγS binding assay and Ca^2+ flux assay have been widely used in drug-screening related to chemokine receptors. The inhibitory activities of the compounds according to the present invention against CCR5 are measured by three methods, i.e., [^35S]GTPγS filter binding assay, SPA-WGA-based [^35S]GTPγS binding assay and calcium influx assay. At the same time, the antiviral activities in cell of the compounds according to the present invention are evaluated by using two kinds HIV-1 subtypes: H4DA5 cell model and PBMC system virus replication model.
A. [^35S]GTPγS Binding Assay
After binding with an agonist, CCR5 experiences a conformation change such that CCR5 interacts with G protein so as to active the G protein. G protein is a tripolymer composed of α-subunit and βγ-subunit. Since the ability of α-subunit binding to GTP depends on the interaction of CCR5 with the agonist, the ability of an agonist for activating CCR5 can be reflected by determining the amount of GTP binding to α-subunit. In a GTPγS binding assay, a ^35S-labeled GTP analogue GTPγS, which can bind with an activated α-subunit without being hydrolyzed, is used to replace GTP in order for eliminating the defect that the amount of GTP binding to G protein can not exactly reflect the activation of CCR5 due to the hydrolysis of GTO by GTPase and for convenience of detection. So, α-subunit binds with GDP when CCR5 is not activated, and after the activation of CCR5, α-subunit binds with GTPγS such that GTPγS irreversible binds to α-subunit. Therefore, the amount of [^35S]-GTPγS binding to α-subunit could reflect the level of CCR5 activated by an agonist. The ability of the agonist for activating CCR5 will decrease when an antagonist is added.
Such experiment has been referred to as GTPγS filtration assay in which [^35S]-GTPγS bound with the free G protein could be separated by membrane filtration.
Alternatively, SPA (Scintillation Proximity Assay) technique can be used to detect the [^35S]-GTPγS bound to G protein, which is called SPA-WGA-based [35S]GTPγS binding assay. The principle of SPA technique is as follows. Sub-atomic particles released during the decay of radioactive atoms, for example β-ray (electron), can excite microspheres at a sufficiently close distance to emit light so as to be detected by a Scintillation Counter. In an aqueous solution, most of the energy of these rays is absorbed by the solvent, and the traveling distance of these rays is limited.
The activation of G protein by CCR5 is determined by the following experiments.
CHO (Chinese hamster ovary cell) permanent cell line expressing CCR5 (CHO-CCR5) (a cell line constructed by Shanghai Targetdrug Ltd.) was lysed with a lysis buffer (5 mM Tris-HCl, pH 7.5, 5 mM EDTA and 5 mM EGTA) and then centrifugated at 15,000×g for 10 min to obtain cell membrane. After the cell membrane was resuspended in a reaction buffer (5 mM Tris-HCl, pH 7.5, 5 mM MgCl2, 1 mM EGTA, 100 mM NaCl), the protein concentration was determined using Bioford Protein Assay Kit manufactured by Bio-Rad Laboratories Inc. Subsequently, GTPγS binding assay was performed in the reaction buffer, wherein the reaction system was 100 μL containing 10 μg membrane protein, 40 μM GDP and 0.5 nM [^35S]-GTPγS (1200 Ci/mmol). After the compound to be tested (the compound was first dissolved in DMSO and then diluted in gradient with the reaction buffer according to the specific situation, wherein the final concentration of DMSO was 1% (v/v) in the whole reaction system) was added and shaken to mix homogeneously, the reaction tube was incubated at 30° C. for 1 hour. After the reaction finished, the tube was placed on ice, and the reaction mixture was diluted with PBS to quench the reaction and filtered under reduced pressure with a GF/C filter membrane. […]

T1 sequence (P51681 whole entry): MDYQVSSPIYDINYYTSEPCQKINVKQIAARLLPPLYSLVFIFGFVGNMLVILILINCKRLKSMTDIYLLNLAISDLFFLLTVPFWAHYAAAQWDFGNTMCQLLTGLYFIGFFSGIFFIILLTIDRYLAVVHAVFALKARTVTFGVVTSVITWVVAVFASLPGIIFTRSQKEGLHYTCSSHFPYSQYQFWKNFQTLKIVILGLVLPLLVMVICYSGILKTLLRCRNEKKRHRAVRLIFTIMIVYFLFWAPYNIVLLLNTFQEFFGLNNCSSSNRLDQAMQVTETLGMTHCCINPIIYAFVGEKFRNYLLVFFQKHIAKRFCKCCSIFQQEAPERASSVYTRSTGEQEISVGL

Row | Compound | IC50 [nM] | inhibition at 0.03 µM [%] | inhibition at 0.3 µM [%] | other results
1 | CC(=O)N1CCC(C(=O)N(CCCN2[C@@H]3CC[C@H]2C[C@H](NC(=O)Cc2ccc([N+](=O)[O-])c4ccccc24)C3)c2ccc(C)c(Cl)c2)CC1 [Compound 7s, 1-acetyl-N-(3-chloro-4-methylphenyl)-N-(3-(3-exo-(2-(4-nitro-1-naphthyl)acetamido)-8-azabicyclo[3.2.1]oct-8-yl)propyl)-4-piperidinylcarboxamide] | 3.34 |  |  | 
2 | CC(=O)N1CCC(C(=O)N(CCCN2C3CCC2CC(NC(=O)c2cccnc2)C3)c2ccc(C)c(Cl)c2)CC1 (stereo not drawn) [Compound 7t, 1-acetyl-N-(3-chloro-4-methylphenyl)-N-(3-(3-exo-nicotinamido-8-azabicyclo[3.2.1]oct-8-yl)propyl)-4-piperidinylcarboxamide] |  | 3.36 | 15.6 | 
3 | CC(=O)N1CCC(C(=O)N(CCCN2C3CCC2CC(NC(=O)c2ccc(C(F)(F)F)cc2)C3)c2ccc(C)c(Cl)c2)CC1 (stereo not drawn) [Compound 7u, 1-acetyl-N-(3-chloro-4-methylphenyl)-N-(3-(3-exo-p-trifluoromethylbenzoylamido-8-azabicyclo[3.2.1]oct-8-yl)propyl)-4-piperidinylcarboxamide] |  | 26.5 | 96.3 | 
4 | CC(=O)N1CCC(C(=O)N(CCCN2C3CCC2CC(NC(=O)CCc2cccnc2)C3)c2ccc(C)c(Cl)c2)CC1 (stereo not drawn) [Compound 7v, 1-acetyl-N-(3-chloro-4-methylphenyl)-N-(3-(3-exo-(3-(3-pyridyl)propionamido)-8-azabicyclo[3.2.1]oct-8-yl)propyl)-4-piperidinylcarboxamide] |  | 17.5 | 76.7 | 
5 | CC(=O)N1CCC(C(=O)N(CCCN2[C@@H]3CC[C@H]2C[C@H](NC(=O)COc2ccc4ccccc4c2)C3)c2ccc(C)c(Cl)c2)CC1 [Compound 7w, 1-acetyl-N-(3-chloro-4-methylphenyl)-N-(3-(3-exo-(2-(2-naphthoxy)acetamido)-8-azabicyclo[3.2.1]oct-8-yl)propyl)-4-piperidinylcarboxamide] | 18.1 |  |  | 
6 | CC(=O)N1CCC(C(=O)N(CCCN2[C@@H]3CC[C@H]2C[C@H](NC(=O)COc2ccc(Cl)cc2)C3)c2ccc(C)c(Cl)c2)CC1 [Compound 7x, 1-acetyl-N-(3-chloro-4-methylphenyl)-N-(3-(3-exo-(2-p-chlorophenoxy)acetamido-8-azabicyclo[3.2.1]oct-8-yl)propyl)-4-piperidinylcarboxamide] | 27.3 |  |  | 
7 | CC(=O)N1CCC(C(=O)N(CCCN2[C@@H]3CC[C@H]2C[C@H](NC(=O)COc2ccc(Cl)cc2Cl)C3)c2ccc(C)c(Cl)c2)CC1 [Compound 7y, 1-acetyl-N-(3-chloro-4-methylphenyl)-N-(3-(3-exo-(2-(2,4-dichlorophenoxy)acetamido)-8-azabicyclo[3.2.1]oct-8-yl)propyl)-4-piperidinylcarboxamide] | 24.6 |  |  | 
8 | CNS(=O)(=O)c1ccc(CC(=O)N[C@@H]2C[C@H]3CC[C@@H](C2)N3CCCN(C(=O)C2CCN(C(C)=O)CC2)c2ccc(C)c(Cl)c2)cc1 [Compound 7z, 1-acetyl-N-(3-chloro-4-methylphenyl)-N-(3-(3-exo-(2-(4-(N-methylsulphonyl)phenyl)acetamido)-8-azabicyclo[3.2.1]oct-8-yl)propyl)-4-piperidinylcarboxamide] | 17.3 |  |  | 
9 | CC(=O)N1CCC(C(=O)N(CCCN2[C@@H]3CC[C@H]2C[C@H](NS(C)(=O)=O)C3)c2ccc(C)c(Cl)c2)CC1 [Compound 9a, 1-acetyl-N-(3-chloro-4-methylphenyl)-N-(3-(3-exo-(methylsulfonyl amido)-8-azabicyclo[3.2.1]oct-8-yl)propyl)-4-piperidinylcarboxamide] | 20.1 |  |  | 
10 | CC(=O)N1CCC(C(=O)N(CCCN2[C@@H]3CC[C@H]2C[C@H](NS(=O)(=O)c2ccc([N+](=O)[O-])cc2)C3)c2ccc(C)c(Cl)c2)CC1 [Compound 9c, 1-acetyl-N-(3-chloro-4-methylphenyl)-N-(3-(3-exo-(4-nitrophenylsulfonylamido)-8-azabicyclo[3.2.1]oct-8-yl)propyl)-4-piperidinylcarboxamide] | 3.3 |  |  | 
11 | CC(=O)N1CCC(C(=O)N(CCCN2[C@@H]3CC[C@H]2C[C@H](NS(=O)(=O)c2cccc([N+](=O)[O-])c2)C3)c2ccc(C)c(Cl)c2)CC1 [Compound 9d, 1-acetyl-N-(3-chloro-4-methylphenyl)-N-(3-(3-exo-(3-nitrophenylsulfamide)-8-azabicyclo[3.2.1]oct-8-yl)propyl)-4-piperidinylcarboxamide] | 2.59 |  |  | 
12 | CC(=O)N1CCC(C(=O)N(CCCN2[C@@H]3CC[C@H]2C[C@H](NS(=O)(=O)Cc2ccccc2)C3)c2ccc(C)c(Cl)c2)CC1 [Compound 9e, 1-acetyl-N-(3-chloro-4-methylphenyl)-N-(3-(3-exo-(phenylmethylsulfonylamido)-8-azabicyclo[3.2.1]oct-8-yl)propyl)-4-piperidinylcarboxamide] | 7.4 |  |  | 
13 | CC(=O)N1CCC(C(=O)N(CCCN2[C@@H]3CC[C@H]2C[C@H](NS(=O)(=O)c2cccs2)C3)c2ccc(C)c(Cl)c2)CC1 [Compound 9f, 1-acetyl-N-(3-chloro-4-methylphenyl)-N-(3-(3-exo-(thienyl-2-sulfonylamido)-8-azabicyclo[3.2.1]oct-8-yl)propyl)-4-piperidinylcarboxamide] | 2.53 |  |  | 
14 | COc1ccc(NC(=O)NC2CC3CCC(C2)N3CCCN(C(=O)C2CCN(C(C)=O)CC2)c2ccc(C)c(Cl)c2)cc1 (stereo not drawn) [Compound 10a, 1-acetyl-N-(3-chloro-4-methylphenyl)-N-(3-(3-exo-(3-(4-methoxylphenyl)ureylene)-8-azabicyclo[3.2.1]oct-8-yl)propyl)-4-piperidinylcarboxamide] |  |  |  | inhibition against CCR5 (class symbol in IC50 column) (class by inhibition at 30 nM or 300 nM): ++ (the compound at 300 nM has an inhibition against CCR5 of more thant 50% at 300 nM)
15 | CC(=O)N1CCC(C(=O)N(CCCN2C3CCC2CC(NC(=O)Nc2ccc(Cl)c(C(F)(F)F)c2)C3)c2ccc(C)c(Cl)c2)CC1 (stereo not drawn) [Compound 10b, 1-acetyl-N-(3-(3-(3-(4-chloro-3-(trifluoromethyl)phenyl)ureylene)-8-azabicyclo[3.2.1]oct-8-yl)propyl)-N-(3-chloro-4-methylphenyl)-4-piperidinylcarboxamide] | 28.7 |  |  | 
16 | CC(=O)N1CCC(C(=O)N(CCCN2C3CCC2CC(NC(=O)Nc2ccccc2)C3)c2ccc(C)c(Cl)c2)CC1 (stereo not drawn) [Compound 10c, 1-acetyl-N-(3-(3-(3-phenylureylene)-8-azabicyclo[3.2.1]oct-8-yl)propyl)-N-(3-chloro-4-methylphenyl)-4-piperidinylcarboxamide] |  | 33.5 | 41.9 | 
17 | CC(=O)N1CCC(C(=O)N(CCCN2C3CCC2CC(n2c(C)nnc2C(C)C)C3)c2ccc(C)c(Cl)c2)CC1 (stereo not drawn) [Compound 11, 1-acetyl-N-(3-chloro-4-methylphenyl)-N-(3-(3-exo-(3-isopropyl-5-methyl-4-hydro-1,2,4-triazol-4-yl)-8-azabicyclo[3.2.1]oct-8-yl)propyl)-4-piperidinylcarboxamide] |  | 48.8 | 98.4 | 
18 | Cc1ccc(S(=O)(=O)NC2CC3CCC(C2)N3CCCN(C(=O)C2CCCCC2)c2ccc(C)c(Cl)c2)cc1 (stereo not drawn) [Compound 15a, N-(3-chloro-4-methylphenyl)-N-(3-(3-exo-(4-tolylsulfonamido)-8-azabicyclo[3.2.1]oct-8-yl)propyl)cyclohexylcarboxamide] |  | 45.2 | 100 | 
